The numbers were not newly measured in patent publication US12251426B2 (priority 2020, dated 2025), which cites them from elsewhere.

For one data set, the system named is macrophages. To be noted: in vitro.
The target of data set [1] is SARS-CoV helicase protein (Severe acute respiratory syndrome coronavirus, UniProt P0C6X7).
In data set [2] the test system is human coronavirus NL63 (HCoV-NL63). Conditions: in vivo study (so in the source).
For the next data set, the system named is influenza A virus. To be noted: in vitro.
Data set [3] addresses SARS-CoV-2 S-protein/ACE2 receptor interface (UniProt P0DTC2+Q9BYF1).
A further data set deals with S2 subunit of SARS-CoV (Severe acute respiratory syndrome coronavirus, UniProt P59594).
The target in another data set is SARS-CoV 3CLpro (Severe acute respiratory syndrome coronavirus, UniProt P0C6X7).
The target of the next data set is SARS-CoV-2 PLpro (Severe acute respiratory syndrome coronavirus 2, UniProt P0DTD1).
The next data set concerns phospholipase A2 (PLA2). To be noted: in vitro.
For data set [4] the following is noted: normal intake.
A further data set has as its target helicase (Severe acute respiratory syndrome coronavirus 2, UniProt P0DTD1).
In the next data set the target is 3CLpro (Severe acute respiratory syndrome coronavirus 2, UniProt P0DTD1).
A further data set deals with T lymphocytes. Conditions: in vitro, exogenous.
The test system of data set [5] is alveolar epithelial lining surface. Conditions: acute lung injury caused by sepsis in mice.
For the next data set, the target named is SARS-CoV PLpro (Severe acute respiratory syndrome coronavirus, UniProt P0C6X7).
The next data set has as its target SARS-CoV RdRp (Severe acute respiratory syndrome coronavirus, UniProt P0C6X7).

Structures are written as SMILES.

Consider `C=C1CC[C@H](O)C/C1=C/C=C1\CCC[C@]2(C)[C@@H]([C@H](C)CCCC(C)C)CC[C@@H]12` [vitamin D, cholecalciferol], for which, in the data set with macrophages, the “expression of anti-inflammatory cytokines by macrophages” value is reported as “increases” and the “expression of pro-inflammatory cytokines by macrophages” value is “reduces”.
For `O=c1c(O)c(-c2cc(O)c(O)c(O)c2)oc2cc(O)cc(O)c12` [myricetin], the “inhibition of SARS-CoV helicase protein” value in [1] is “inhibits”.
Take `O=C(O)/C=C/c1ccc(O)c(O)c1` [Caffeic acid, caffeic acid]: the water solubility result is recorded as “slightly water-soluble”. In data set [2], the “inhibition of HCoV-NL63” value is reported as “blocking virus attachment”. Moreover, the “inhibitory effect on replication of influenza A virus” value in the data set on influenza A virus is reported as “highly inhibitory effect”.
Regarding `O=c1cc(-c2ccc(O)c(O)c2)oc2cc(O)cc(O)c12` [Luteolin, luteolin], in data set [3], the “binding affinity to S-protein/ACE2 receptor interface” value is “high binding affinity”. In addition, the “binding affinity to S2 subunit of SARS-CoV” value at S2 subunit of SARS-CoV is listed as “high binding affinity”.
Take `O=c1c(O)c(-c2ccc(O)c(O)c2)oc2cc(O)cc(O)c12` [Quercetin, quercetin]: on SARS-CoV 3CLpro, the “inhibition of SARS-CoV 3CLpro” value is on record as “inhibits”. The “binding affinity to S-protein/ACE2 receptor interface” value in [3] is “significant binding affinity”.
Take `O=C(O[C@@H]1Cc2c(O)cc(O)cc2O[C@@H]1c1cc(O)c(O)c(O)c1)c1cc(O)c(O)c(O)c1` [EGCG, epigallocatechin gallate]: the “inhibition of SARS-CoV 3CLpro” value on SARS-CoV 3CLpro was “inhibits”. Besides, on SARS-CoV-2 PLpro, the “binding affinity to SARS-CoV-2 PLpro” value is reported as “strong binding affinity”. In the data set on phospholipase A2 (PLA2), the “inhibition of PLA2” value is on record as “inhibit”.
For `COc1ccc([C@@H]2CC(=O)c3c(O)cc(O[C@@H]4O[C@H](CO[C@@H]5O[C@@H](C)[C@H](O)[C@@H](O)[C@H]5O)[C@@H](O)[C@H](O)[C@H]4O)cc3O2)cc1O` [Hesperidin, hesperidin], the signs of toxicity result in [4] is recorded as “No signs of toxicity”. On helicase, the “binding affinity to helicase” value is reported as “high binding affinity”. Moreover, at 3CLpro, the “binding affinity to 3CLpro” value is given as “high binding affinity”.
`O=C1O[C@H]([C@@H](O)CO)C(O)=C1O` [vitamin C, ascorbic acid]: the “effect on number, proliferation, and function of T lymphocytes” value in the data set with T lymphocytes is given as “increase”. For the same compound, in data set [5], the “repair of the alveolar epithelial lining surface” value is listed as “stimulates repair”.
As for `[Zn+2]` [Zinc ions], the “inhibition of SARS-CoV 3CLpro” value on SARS-CoV 3CLpro is listed as “can inhibit”. Also, the “inhibition of SARS-CoV PLpro” value at SARS-CoV PLpro was “can also inhibit”. The “inhibition of SARS-CoV RdRp” value on SARS-CoV RdRp is recorded as “direct inhibition”.
